This assay has as its target Factor D (Homo sapiens (Human), UniProt P00746). In words: Factor D esterolytic assay (Z-Lys-SBzl substrate, DTNB, 405 nm). It is filed as biochemical. Conditions: Z-Lys-SBzl 1.29 mM, pH 7.5, 10% DMSO, tested a minimum of three times, read-out: Measured Ki (IC50) Value for Compounds: IC50. The gist of the method: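 Thioester hydrolysis (Z-Lys-SBzl, 1.29 mM) by human Factor D ([…]) detected through DTNB color at 405 nm over 600 sec, minus 690 nm background. Buffer: 100 mM HEPES pH 7.5, 500 mM NaCl, 10% DMSO; optional room-temperature preincubation before substrate. IC50 derived from percent rate inhibition; at least three runs.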

The structures appear in SMILES notation. Bounds are passed on as bounds.

Chain of Factor D (P00746 26-253): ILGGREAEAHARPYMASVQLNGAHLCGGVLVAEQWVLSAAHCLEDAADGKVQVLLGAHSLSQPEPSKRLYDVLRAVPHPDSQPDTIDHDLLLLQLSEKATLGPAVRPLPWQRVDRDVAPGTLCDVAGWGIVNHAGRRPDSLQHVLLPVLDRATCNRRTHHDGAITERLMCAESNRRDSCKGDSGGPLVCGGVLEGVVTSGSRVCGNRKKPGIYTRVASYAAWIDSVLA

For `NCc1cccc(-c2cc(COc3ccccc3CC(=O)O)cc3ccoc23)c1O` [Compound 248c, 2-(2-((7-(3-(aminomethyl)-2-hydroxyphenyl)benzofuran-5-yl)methoxy)phenyl)acetic acid], the IC50 was less than 1 µM. As for `NCc1cccc(-c2cc(COc3cc(CN)ccc3CC(=O)O)cc3cc(CO)oc23)c1` [Compound 446c, 2-(4-(aminomethyl)-2-((7-(3-(aminomethyl)phenyl)-2-(hydroxymethyl)benzofuran-5-yl)methoxy)phenyl)acetic acid], the figure is less than 1 µM; as for `NCCNCc1cc2cc(COc3ccccc3CC(=O)O)cc(-c3cccc(CN)c3)c2o1` [Compound 196d, 2-(2-((2-(((2-aminoethyl)amino)methyl)-7-(3-(aminomethyl)phenyl)benzofuran-5-yl)methoxy)phenyl)acetic acid], less than 1 µM.

As for `COc1ccc(CC(=O)O)c(OCc2cc(-c3ccnc(CN)c3)c3oc(F)cc3c2)c1` [Compound 492b, 2-(2-((7-(2-(aminomethyl)pyridin-4-yl)-2-fluorobenzofuran-5-yl)methoxy)-4-methoxyphenyl)acetic acid], the IC50 is less than 1 µM. The figure for `Cc1ccc(CC(=O)O)c(NC(=O)c2nc(-c3cccc(CN)c3)nn3cccc23)c1` [Compound 39d, 2-(2-(2-(3-(aminomethyl)phenyl)pyrrolo[2,1-f][1,2,4]triazine-4-carboxamido)-4-methylphenyl)acetic acid] is less than 1 µM; for `NCc1cccc(-c2cc(COc3ccccc3CC(=O)O)cc3cc(CN)oc23)c1` [Compound 406e, 2-(2-((2-(aminomethyl)-7-(3-(aminomethyl)phenyl)benzofuran-5-yl)methoxy)phenyl)acetic acid] it is less than 1 µM. The figure for `Cc1ccc(CC(=O)O)c(OCc2cc(-c3cccc(CN)c3)c3occ(C(F)(F)F)c3c2)c1` [Compound 345b, 2-(2-((7-(3-(aminomethyl)phenyl)-3-(trifluoromethyl)benzofuran-5-yl)methoxy)-4-methylphenyl)acetic acid] is less than 1 µM; for `CC(C)n1ccc2c(-c3ccnc(CN)c3F)cc(COc3ccccc3CC(=O)O)cc21` [Compound 121b, 2-(2-((4-(2-(aminomethyl)-3-fluoropyridin-4-yl)-1-isopropyl-1H-indol-6-yl)methoxy)phenyl)acetic acid] it is less than 1 µM.

As for `COCc1cc2cc(COc3cc(CN)ccc3CC(=O)O)cc(-c3cccc(CN)c3)c2o1` [Compound 445c, 2-(4-(aminomethyl)-2-((7-(3-(aminomethyl)phenyl)-2-(methoxymethyl)benzofuran-5-yl)methoxy)phenyl)acetic acid], the IC50 is less than 1 µM. As for `COCc1cc2cc(COc3ccccc3CC(=O)O)cc(-c3cccc(CN)c3)c2o1` [Compound 96e, 2-(2-((7-(3-(aminomethyl)phenyl)-2-(methoxymethyl)benzofuran-5-yl)methoxy)phenyl)acetic acid], the figure is less than 1 µM; as for `CC(C)Cc1cc2cc(COc3ccccc3CC(=O)O)cc(-c3ccnc(CN)c3)c2o1` [Compound 219c, 2-(2-((7-(2-(aminomethyl)pyridin-4-yl)-2-isobutylbenzofuran-5-yl)methoxy)phenyl)acetic acid], less than 1 µM. For `CN(C)Cc1cc2cc(COc3ccccc3CC(=O)O)cc(-c3cccc(CN)c3)c2o1` [Compound 141c, 2-(2-((7-(3-(aminomethyl)phenyl)-2-((dimethylamino)methyl)benzofuran-5-yl)methoxy)phenyl)acetic acid], the IC50 was less than 1 µM. With `N[C@H](CO)c1cccc(-c2cc(COc3ccccc3CC(=O)O)cc3ccoc23)c1` [Compound 59d, (S)-2-(2-((7-(3-(1-amino-2-hydroxyethyl)phenyl)benzofuran-5-yl)methoxy)phenyl)acetic acid], the IC50 was less than 1 µM. The figure for `NCc1cccc(-c2cc(CCN3CCC[C@H]3C(=O)NCc3cccc(Cl)c3F)cc3ccoc23)c1` [Compound 369d, (S)-1-(2-(7-(3-(aminomethyl)phenyl)benzofuran-5-yl)ethyl)-N-(3-chloro-2-fluorobenzyl)pyrrolidine-2-carboxamide] is less than 1 µM; for `NCc1cccc(-c2cc(COc3ccccc3CC(=O)O)cc3cc(CNC(=O)c4ccc(F)cc4F)oc23)c1` [Compound 297c, 2-(2-((7-(3-(aminomethyl)phenyl)-2-((2,4-difluorobenzamido)methyl)benzofuran-5-yl)methoxy)phenyl)acetic acid] it is less than 1 µM; for `COc1ccc(CC(=O)O)c(OCc2cc(-c3cccc(CN)c3)c3ccn(C(C)C)c3c2)c1` [Compound 356c, 2-(2-((4-(3-(aminomethyl)phenyl)-1-isopropyl-1H-indol-6-yl)methoxy)-4-methoxyphenyl)acetic acid] it is less than 1 µM. The figure for `NCc1cccc(-c2cc(COc3ccccc3CC(=O)O)cc3c(C(F)(F)F)coc23)c1F` [Compound 173b, 2-(2-((7-(3-(aminomethyl)-2-fluorophenyl)-3-(trifluoromethyl)benzofuran-5-yl)methoxy)phenyl)acetic acid] is less than 1 µM; for `NCc1ccc(F)c(-c2nc(C(=O)Nc3ccccc3CC(=O)O)c3cccn3n2)c1` [Compound 47f, 2-(2-(2-(5-(aminomethyl)-2-fluorophenyl)pyrrolo[2,1-f][1,2,4]triazine-4-carboxamido)phenyl)acetic acid] it is 1 to 10 µM; for `C[C@@H](N)c1cccc(-c2nc(C(=O)Nc3ccccc3CC(=O)O)c3cccn3n2)c1` [Compound 4e, (R)-2-(2-(2-(3-(1-aminoethyl)phenyl)pyrrolo[2,1-f][1,2,4]triazine-4-carboxamido)phenyl)acetic acid] it is less than 1 µM. The figure for `NCc1cccc(-c2nc(C(=O)Nc3ccccc3CC(=O)O)c3cccn3n2)c1` [Compound 1h, 2-(2-(2-(3-(aminomethyl)phenyl)pyrrolo[2,1-f][1,2,4]triazine-4-carboxamido)phenyl)acetic acid] is less than 1 µM; for `NCc1nccc(-c2cc(COc3ccccc3CC(=O)O)cc3occc23)c1F` [Compound 174c, 2-(2-((4-(2-(aminomethyl)-3-fluoropyridin-4-yl)benzofuran-6-yl)methoxy)phenyl)acetic acid] it is less than 1 µM. On to `COc1ccc(CC(=O)O)c(OCc2cc(-c3cccc(CN)c3F)c3occc3c2)c1` [Compound 465b, 2-(2-((7-(3-(aminomethyl)-2-fluorophenyl)benzofuran-5-yl)methoxy)-4-methoxyphenyl)acetic acid], for which the IC50 is less than 1 µM. The figure for `NCc1cccc(-c2cc(COc3cc(-c4ccccc4)ccc3CC(=O)O)cc3ccoc23)c1` [Compound 263c, 2-(3-((7-(3-(aminomethyl)phenyl)benzofuran-5-yl)methoxy)-[1,1′-biphenyl]-4-yl)acetic acid] is less than 1 µM; for `CC(C)n1ccc2c(-c3ccnc(CN)c3)cc(COc3ccc(F)cc3CC(=O)O)cc21` [Compound 497d, 2-(2-((4-(2-(aminomethyl)pyridin-4-yl)-1-isopropyl-1H-indol-6-yl)methoxy)-5-fluorophenyl)acetic acid] it is less than 1 µM; for `NCc1cccc(-c2cc(COc3ccccc3CC(=O)O)cc3cc(C(=O)NCc4ccccc4)oc23)c1` [Compound 290c, 2-(2-((7-(3-(aminomethyl)phenyl)-2-(benzylcarbamoyl)benzofuran-5-yl)methoxy)phenyl)acetic acid] it is less than 1 µM.

Usually IC50 stands for the point on the concentration scale where inhibition reaches its midpoint.

The record behind these values is patent publication US11370774B2, “Substituted benzofuran, benzopyrrole, benzothiophene, and structurally related complement inhibitors” (BioCryst Pharmaceuticals, Inc., priority 2018, dated 2022).
